Results reported in patent US7314970B2, “Method for plant breeding” (priority 1997, dated 2008).

What was measured:
most plant species = most plant species (Franz, 1985), but not all; cited from earlier work
[1] = tested on: DK580 and DK626 hybrids of FI117, GA21, GG25 and GJ11; experiment: Yield effect of glyphosate application on DK580 and DK626 hybrids (field test); assay type: in vivo, maize
Experimental: Tests were designed as four row, 3 rep., split-split-plot with main plots as hybrids, subplots as transformant sources (i.e. GA21, GG25, FI117, and GJ11) and subplots as timing/rate combinations […]. Statistical methods for design and analysis of data derived from experimental field plots are described in Gomez and Gomez, (1984). Tests were conducted in Dekalb, Ill., and Thomasboro, Ill. during 1996. All rows were planted at double normal planting density, i.e., 60 seeds per row, because hybrids segregated 1:1 for the glyphosate resistance trait. Sprayed plants were thinned to 30 plants per row no sooner than 7 days after application of Roundup at a time when Roundup susceptible plants could be identified. Unsprayed plots were thinned to 30 plants per row at the same time. […] After thinning, the mean extended leaf height was measured on 10 resistant plants per plot. […]
Four DK580 and four DK626 hybrids, each containing a different mutant EPSPS transgene from one of the GA21, FI117, GJ11 or GG25 transformation events, were field tested for possible effects on yield with glyphosate application as described in Example 12, with treatments as shown in FIG. 13. […] Data were analyzed using the SAS PROC MIXED and PROC SUM procedures. […]

[2] = tested on: DK580 and DK626 BC4 hybrids of FI117, GA21, GG25 and GJ11; experiment: Effect of glyphosate application on growth and fertility of DK580 and DK626 hybrids (field test); assay type: in vivo, maize
Text: BC4 hybrids of DK580 and DK626 were produced containing one of the FI117, GA21, GG25 or GJ11 transformation events as described in example 14. Comparisons of the effect of glyphosate application on growth (mean extended leaf height) and male fertility was compared at both the V4 and V8 developmental stage. The developmental scale that was used to rate the corn plants is well known in the art, and is described in Special Report No. 48, Iowa State University of Science and Technology, Cooperative Extension Service, Ames, Iowa. Each of the hybrids was studied at both the V4 and V8 stage using 0× glyphosate (i.e. water only), 1× glyphosate, or 4× glyphosate (the 1× level corresponds to 16 ounces/acre of ROUNDUP ULTRA™).
Tests were designed as four row, 3 rep., split-split-plot with main plots as hybrids, subplots as transformant sources (i.e. GA21, GG25, FI117, and GJ11) and subplots as timing/rate combinations […]. Statistical methods for design and analysis of data derived from experimental field plots are described in Gomez and Gomez, (1984). Tests were conducted in Dekalb, Ill., and Thomasboro, Ill. during 1996. All rows were planted at double normal planting density, i.e., 60 seeds per row, because hybrids segregated 1:1 for the glyphosate resistance trait. Sprayed plants were thinned to 30 plants per row no sooner than 7 days after application of Roundup at a time when Roundup susceptible plants could be identified. Unsprayed plots were thinned to 30 plants per row at the same time. At 5-10 days after herbicide application, the following data was collected in each row: number of dead plants, number of damaged plants, and number of normal plants. After thinning, the mean extended leaf height was measured on 10 resistant plants per plot. During the remainder of the growing season the following agronomic data was collected: early stand count, seedling vigor, final stand count, plant height, ear height, intactness, stay green, number of barren plants, number of male-sterile plants, number of dropped ears, number of root lodged plants, number of stalks lodged plants, shelled grain weight, per cent grain moisture at harvest, and test weight.

Row | SMILES | phytotoxicity relative to glyphosate (most plant species) | effect on yield ([1]; DK580 hybrids, glyphosate applied at V4 stage) | effect on yield ([1]; DK626 hybrids with GA21 or FI117, V8 stage, 4× rate) | male fertility ([2]; all 4 GA21 treatments) | resistance to glyphosate (mean extended leaf height) ([2]; all 4 transformation events, 1× and 4× application levels (1× = 16 ounces/acre ROUNDUP ULTRA)) | male fertility ([2]; application at V4 stage, all plants) | male fertility ([2]; application at V8 stage, only GJ11 and GJ25 treatments)
1 | NCP(=O)(O)O [AMPA, aminomethylphosphonate] | much less phytotoxic than glyphosate |  |  |  |  |  | 
2 | O=C(O)CNCP(=O)(O)O [glyphosate, N-phosphonomethyl-glycine] |  | significant decreases in yield are not observed for 3 of the 4 DK580 hybrids | no significant loss in yield | male-fertile plants | significant resistance | male-fertile | male sterile plants
